# US20090269394A1, “METHODS AND COMPOSITIONS FOR TREATING ONCHOMYCOSIS” (priority 2008, published 2009)
# Where two headings read alike, the source gives them in different places.
# What was measured:
# [1] = system: Candida albicans isolates; assay: MIC/MFC microtiter broth dilution; assay type: cell-based; settings: NB-002 as μg CPC/ml
# [2] = system: Alternaria spp.; assay: MIC against rare onychomycosis pathogens (CLSI M 38-A); assay type: cell-based; settings: 3 isolates; NB-002 as μg CPC/ml
# Source text: (§1) Methods: All fungi were from patients, many of which had onychomycosis or another tinea infection.
# [3] = system: Chaetomium spp.; assay: as above; assay type: cell-based; settings: 3 isolates; NB-002 as μg CPC/ml
# Source text: as §1
# [4] = system: Phoma sp.; assay: as above; assay type: cell-based; settings: 3 isolates; NB-002 as μg CPC/ml
# Source text: as §1
# [5] = system: Curvularia spp.; assay: as above; assay type: cell-based; settings: 3 isolates; NB-002 as μg CPC/ml
# Source text: as §1
# [6] = system: Scytalydium spp.; assay: as above; assay type: cell-based; settings: 10 isolates; NB-002 as μg CPC/ml
# Source text: as §1
# [7] = system: Scedosporium spp.; assay: as above; assay type: cell-based; settings: 5 isolates; NB-002 as μg CPC/ml
# Source text: as §1
# [8] = system: Paecilomyces spp.; assay: as above; assay type: cell-based; settings: 4 isolates; NB-002 as μg CPC/ml
# Source text: as §1
# [9] = system: Scopulariopsis spp.; assay: as above; assay type: cell-based; settings: 5 isolates; NB-002 as μg CPC/ml
# Source text: as §1
# [10] = system: Aspergillus spp.; assay: as above; assay type: cell-based; settings: 5 isolates; NB-002 as μg CPC/ml
# Source text: as §1
# [11] = system: Trichophyton soundanense; assay: as above; assay type: cell-based; settings: 3 isolates; NB-002 as μg CPC/ml
# Source text: as §1
# [12] = system: Trichophyton verrucosum; assay: as above; assay type: cell-based; settings: 3 isolates; NB-002 as μg CPC/ml
# Source text: as §1
# [13] = system: Epicoccum nigrum; assay: as above; assay type: cell-based; settings: 3 isolates; NB-002 as μg CPC/ml
# Source text: as §1
# [14] = system: Trichophyton mentagrophytes; assay: MIC/MFC microtiter broth dilution; assay type: cell-based; settings: for MIC90 / MIC50: Trichophyton mentagrophytes; for MFC50 / MFC90 / MIC range: n = 14 isolates, NB-002 as μg CPC/ml
# [15] = system: T. rubrum; assay: Time-kill experiments on mycelia and microconidia; assay type: cell-based, Trichophyton rubrum
# Procedure: Time-kill experiments. […] Part of the conidial suspension was pelleted and resuspended in RPMI 1640 medium and grown for 16-18 hours overnight at room temperature to allow germination of microconidia. After germination, the hyphae were collected by centrifugation and resuspended in distilled water. […] Colony-forming units were counted after four days of incubation at 35° C.
# [16] = system: Epidermophyton floccosum; assay: MIC/MFC microtiter broth dilution; assay type: cell-based; settings: n = 6 isolates; NB-002 as μg CPC/ml
# [17] = system: Fusarium spp.; assay: MIC against rare onychomycosis pathogens (CLSI M 38-A); assay type: cell-based; settings: 10 isolates; NB-002 as μg CPC/ml
# Source text: as §1
# [18] = system: Acremonium spp.; assay: as above; assay type: cell-based; settings: 5 isolates; NB-002 as μg CPC/ml
# Source text: as §1
# [19] = system: Trichophyton rubrum; assay: microbe, parasite or virus in culture; assay type: cell-based
# Procedure: (§2) Phenotypically resistant isolates were tested for MICs and compared to parental MICs.
# [20] = system: Epidermophyton floccosum; assay: microbe, parasite or virus in culture; assay type: cell-based; settings: read-out: Final MIC
# Procedure: as §2
# [21] = system: Trichophyton mentagrophytes; assay: microbe, parasite or virus in culture; assay type: cell-based
# Procedure: as §2
# [22] = system: Microsporum canis; assay: MIC/MFC microtiter broth dilution; assay type: cell-based; settings: M. canis n = 10 (tinea capitis species)
# [23] = system: T. violaceum; assay: MIC against species that cause tinea capitis; assay type: cell-based; settings: T. violaceum n = 10
# [24] = system: M. audouinii; assay: MIC against species that cause tinea capitis; assay type: cell-based; settings: M. audouinii n = 10
# [25] = system: Trichophyton tonsurans; assay: MIC/MFC microtiter broth dilution; assay type: cell-based
# [26] = system: Trichophyton rubrum; assay type: cell-based; settings: 10^7 conidia plated; NBD031-b; drug plate 0.125 μg/ml
# [27] = cited from earlier work
# [28] = Azole-Resistant isolates (n = 24)
# [29] = Azole-Susceptible isolates (n = 10)
# [30] = Candida albicans, Azole-Resistant isolates (n = 24), read-out: MIC90
# [31] = Candida albicans, Azole-Susceptible isolates (n = 10), read-out: MIC90
# [32] = read-out: Final MIC, isolate NBD031-a, selected on NB-002 drug plate 16 μg/ml
# [33] = read-out: Final MIC, isolate NBD031-b, selected on itraconazole drug plate 0.125 μg/ml
# [34] = read-out: Final MIC, isolate NBD031-c, selected on terbinafine drug plate 0.125 μg/ml
# [35] = read-out: Final MIC, isolate NBD012-a, selected on NB-002 drug plate 8 μg/ml
# [36] = read-out: Final MIC, isolate NBD012-b, selected on NB-002 drug plate 16 μg/ml
# [37] = read-out: Final MIC, isolate NBD012-c, selected on NB-002 drug plate 32 μg/ml
# [38] = read-out: Final MIC, isolate NBD012-d, selected on terbinafine drug plate 0.0625 μg/ml
# [39] = read-out: Final MIC, isolate NBD013-a, selected on itraconazole drug plate […]
# [40] = read-out: Final MIC, isolate NBD014-a, selected on NB-002 drug plate 32 μg/ml
# [41] = T. tonsurans n = 10 (tinea capitis species)
Compound,"MFC90 [1, 28] [µg/mL]","MFC90 [1, 29] [µg/mL]",MIC range [2] [µg/mL],MIC range [3] [µg/mL],MIC range [4] [µg/mL],MIC range [5] [µg/mL],MIC range [10] [µg/mL],MIC range [11] [µg/mL],MIC range [12],MIC range [13] [µg/mL],MIC90 [14] [µg/mL],MIC50 ([14]; read-out: MIC50) [µg/mL],MFC50 [14] [µg/mL],MFC90 [14] [µg/mL],MIC range [14] [µg/mL],MIC range [16] [µg/mL],"MIC90 [1, 30] [µg/mL]","MIC90 [1, 31] [µg/mL]",other results
C[C@@H]1[C@H](O)[C@@H](C)/C=C/C=C/C=C/C=C/C=C/C=C/C=C/[C@H](O[C@@H]2O[C@H](C)[C@@H](O)[C@H](N)[C@@H]2O)C[C@@H]2O[C@](O)(C[C@@H](O)C[C@@H](O)[C@H](O)CC[C@@H](O)C[C@@H](O)CC(=O)O[C@H]1C)C[C@H](O)[C@H]2C(=O)O [Amphotericin B],4,2,1,0.5 to 4,0.5 to 2,0.125 to 1,1 to 4,0.125 to 0.25,0.125 to 0.25 µg/mL,0.25 to 1,,,,,,,,,"MIC90 [1, 28]: 2 µg/mL; MIC90 [1, 29]: 2 µg/mL; MIC range [6]: 0.5 to 1 µg/mL; MIC range [7]: >16 µg/mL; MIC range [8]: >16 µg/mL; MIC range [9]: >16 µg/mL"
Cc1cc(C2CCCCC2)n(O)c(=O)c1 [Ciclopirox],>32,>32,0.25 to 0.5,0.25 to 0.5,0.5 to 1,0.5 to 1,0.5 to 2,0.125 to 0.25,<=0.06-0.125 ug/ml,0.125 to 2,1,0.5,1,16,0.125 to 1,0.5,1,4,"reduction in colony counts ([15]; 16×MIC or 8 μg/ml, after 8 hours, nongrowing mycelia (not microconidia), isolate NBD032): 3 log; activity against the conidial form ([15]; 16×MIC, up to 24 hours, nongrowth conditions): no activity; MIC range [17]: 1 to 16 µg/mL; MIC range [6]: 0.5 to 1 µg/mL; MIC range [7]: 0.5 to 8 µg/mL; MIC range [8]: 8 to 16 µg/mL; MIC range [9]: 0.5 to 2 µg/mL; MIC range [18]: 0.5 to 4 µg/mL; MIC [19, 32]: 4 µg/mL; MIC [19, 33]: 4 µg/mL; MIC [19, 34]: 4 µg/mL; MIC [20]: 4 µg/mL; MIC [21, 35]: 4 µg/mL; MIC [21, 36]: 4 µg/mL; MIC [21, 37]: 4 µg/mL; MIC [21, 38]: 4 µg/mL; MIC [21, 39]: 4 µg/mL; MIC [21, 40]: 4 µg/mL"
Clc1ccc(COC(Cn2ccnc2)c2ccc(Cl)cc2Cl)cc1 (stereo not shown) [Econazole],,,,,,,,,,,0.25,0.25,8,>16,0.125 to 0.25,0.0625 to 0.125,,,MFC Range [16]: 0.0625 to 4 µg/mL
OC(Cn1cncn1)(Cn1cncn1)c1ccc(F)cc1F [Fluconazole],>64,>64,,,,,,,,,,,,,,,> 64,0.5,
COC1=CC(=O)C[C@@H](C)[C@]12Oc1c(Cl)c(OC)cc(OC)c1C2=O [Griseofulvin],,,,,,,,,,,2,0.5,8,>16,0.25 to 4,1 to 2,,,"MIC50 [22]: 0.25 µg/mL; MIC90 [22]: 0.5 µg/mL; MIC range ([22]; in µg/mL): 0.25-0.5; MIC50 [23]: 4 µg/mL; MIC90 [23]: 4 µg/mL; MIC range ([23]; in µg/mL): 1.0-8.0; MIC50 [24]: 0.25 µg/mL; MIC90 [24]: 1 µg/mL; MIC range ([24]; in µg/mL): 0.12-1.0; MFC Range [16]: 1 to 16 µg/mL; MIC range ([25]; T. tonsurans (n = 6), NB-002 as μg CPC/ml): 0.5 to 1 µg/mL; MIC50 [25, 41]: 0.5 µg/mL; MIC90 [25, 41]: 1 µg/mL; MIC range ([25]; T. tonsurans n = 10 (tinea capitis species), in µg/mL): 0.5-1.0"
CCC(C)n1ncn(-c2ccc(N3CCN(c4ccc(OCC5COC(Cn6cncn6)(c6ccc(Cl)cc6Cl)O5)cc4)CC3)cc2)c1=O (stereo not shown) [Itraconazole],>16,>16,0.25 to 0.5,0.5 to 1,0.06 to 0.5,0.125 to 0.25,0.06 to 1,0.125 to 0.25,0.06 to 0.125 µg/mL,0.25 to 0.5,0.5,,8,>16,0.0625 to 0.5,0.125 to 0.5,> 16,0.5,"MIC50 [14]: 0.125 µg/mL; reduction of colony counts / activity on mycelia and microconidia ([15]; 16×MIC, up to 24 hours, nongrowth conditions (FIG. 10)): no activity; # CFU recovered [26]: 2; MIC range [18]: >8 µg/mL; MIC [19, 32]: 0.0625 µg/mL; MIC [19, 33]: 0.0625 µg/mL; MIC [19, 34]: 0.0313 µg/mL; MIC [20]: 0.25 µg/mL; MIC [21, 35]: 0.0625 µg/mL; MIC [21, 36]: 0.0625 µg/mL; MIC [21, 37]: 0.0625 µg/mL; MIC [21, 38]: 0.0625 µg/mL; MIC [21, 39]: 0.125 µg/mL; MIC [21, 40]: 0.0625 µg/mL"
CN(C/C=C/C#CC(C)(C)C)Cc1cccc2ccccc12.Cl [Terbinafine hydrochloride],,,,,,,,,,,,,,,,,,,solubility in ethanol ([27]; in words): soluble; solubility in methanol and dichloromethane ([27]; in words): freely soluble; solubility in water ([27]; in words): slightly soluble
Clc1ccc(COC(Cn2ccnc2)c2ccc(Cl)cc2Cl)c(Cl)c1 (stereo not shown) [miconazole],,,,,,,,,,,,,,,,,,,Ethanol Solubility [27]: 94 mg/mL; Log P [27]: 6.1; Soybean Solubility [27]: 74 mg/mL; pKa [27]: 6.67
